Measurements: patent US11154210B2, “Method of determining vasoreactivity using inhaled nitric oxide” (VERO BIOTECH LLC, priority 2011, dated 2021)
“And” between values parts separate entries of the source, which are not always exact repeats. Equal values may be shown once.

Tests used:
[1] = tested on: patients with pulmonary arterial hypertension; test: Inhaled nitric oxide vasodilator challenge during right heart catheterization, retrospective review of prostacyclin wean/transition cases; format: in vivo, human
Description: Inhaled nitric oxide (NO) can be administered during right heart catheterization (RHC) to evaluate and characterize pulmonary hemodynamics following long term parenteral prostacyclin therapy and can provide information that may influence the choice of treatment strategies for these patients. These treatment strategies may involve changing vasodilator therapy, eligibility for lung and/or heart transplantation, or changes in prognosis. Inhaled nitric oxide can be a potent, selective pulmonary vasodilator agent and has been well studied up to 80 ppm. It is expected that inhaled nitric oxide as a diagnostic agent during RHC may be useful for facilitating patient management strategies and provide clinical information beneficial to patient care.
An aim of the project was to collect and review the existing data from centers experienced with the practice of transition from parenteral prostacyclins to an alternative therapy. The review was conducted to determine if a population could be characterized based on the hemodynamic response using inhaled nitric oxide during right heart catheterization. A primary objective of the project was to determine the correlation, if any, between the return of pulmonary vascular reactivity following parenteral prostacyclin therapy and the ability of the patient to transition from parenteral prostacyclins to an alternative therapy. Secondary objectives included the exploration of clinical characteristics of a patient population with a documented wean or transition from parenteral prostacyclins, as well as evaluating any change in clinical impression.
To date seven sites have contributed to the data set collected for a total of 47 baseline visits, and 246 follow-up visits. There are five failed weans and seven late failures. Data was available to review for 40 cases entered. No statistical analysis was performed and reviews completed were descriptive in order to identify any shared characteristics in the population either as a success, failure or late failure.
Three cases, where nitric oxide re-challenge data was available at the time of subject wean, are represented in Table 2.
The lack of correlation between the clinical findings and the ECHO data prompted review of the data. Baseline hemodynamics, wean hemodynamics and echocardiography data were reviewed for all the failed transitions. […] In each case, where echocardiography data was available and right ventricular enlargement was indicated and/or right ventricular dysfunction was indicated, a failed wean or late failure was common.

[2] = tested on: patients with pulmonary arterial hypertension; settings: active group (n=41), 12 weeks; cited from earlier work
[3] = tested on: patients with pulmonary arterial hypertension; settings: epoprostenol therapy, 27 consecutive patients; cited from earlier work
[4] = failed wean/late failure cases, Time of Wean

Structure (SMILES)	acute vasodilator response (fall in PAPm of >10 mm Hg to <40 mm Hg) ([1]; all three cases of Table 2)	change in PAPm ([1]; all three cases of Table 2, nitric oxide challenge at time of wean)	NO CO ([1]; cardiac output on nitric oxide challenge at time of wean, one patient case per table row)	change in CO ([1]; case of the failed transition)	change in PVR ([1]; case of the failed transition)	WN NO CO [1, 4]	WN NO PAPm [1, 4]	WN NO PVR [1, 4]	NO PAPm ([1]; mean pulmonary arterial pressure on nitric oxide challenge at time of wean, one patient case per table row)	NO PVR ([1]; pulmonary vascular resistance on nitric oxide challenge at time of wean, one patient case per table row)	average decline in mean pulmonary arterial pressure [2] [%]	decline in pulmonary vascular resistance [2] [%]	cardiac output increased [3] [%]	mean pulmonary artery pressure declined [3] [%]	pulmonary vascular resistance declined [3] [%]
[N]=O [NO, nitric oxide]	failed to meet the criteria	only a modest decrease	5.2 and 7.8 and 4.77	marked increase	minimal decrease	5.2	49	8.3	49 and 48 and 70	8.3 and 3.8 and 14.4					
CCCCC[C@H](O)/C=C/[C@@H]1[C@H]2C/C(=C/CCCC(=O)O)O[C@H]2C[C@H]1O [epoprostenol]											8	21	67	22	53
